Reference: US20090215859A1, “Compositions and methods for modulating dhr96” (priority 2004, published 2009)
Entries after “also recorded” stand apart in the source; their conditions may differ.

How the values were obtained:
[1] = system: DHR38; settings: cultured larval organs; cited from earlier work
[2] = solvent or supplied form; cited from earlier work
[3] = system: C. elegans nhr-8 mutant; settings: mutation in the nuclear receptor nhr-8 gene; cited from earlier work
[4] = system: wild type (Canton S) and DHR96 mutant adult flies; test: Toxicity assay: adult flies exposed to DDT in 5% sucrose on filter paper, survival scored; format: in vivo, Drosophila melanogaster
Protocol: A time course is shown. 20 wild type or DHR96^E25 mutant flies were treated with a high concentration of DDT (100 ng/μl) and assayed for survival every hour up to 10 hours. Each assay (A+B) was done in triplicate to determine the standard deviation as shown by the error bars.
(§1) A dose response curve is shown. Twenty wild type or DHR96^E25 mutant flies were exposed to eight DDT concentrations, from 0.78 to 100 ng/μl, and then scored for survival 10 hours later. A similar test was conducted for sensitivity to tebufenizide (FIG. 11C) using larvae raised on food supplemented with the drug.
Adult flies were raised on standard cornmeal/agar food and starved overnight under humid conditions at 25 0 C before treatment with DDT. A DDT stock solution was prepared by dissolving crystalline DDT (Sigma) in 100% ethanol. Appropriate DDT dilutions were made by diluting the DDT stock with 5% sucrose and pipetting 275 μl of the solution onto a strip of Whatman filter paper inside a small glass scintillation vial. Twenty adult flies were placed in each vial which was plugged with cotton. Mortality was scored 10 hours later at room temperature. For each DDT concentration, three replicates, each of twenty adult flies, were used. For the time course assay, 100 ng/μl of DDT was used and mortality scored every hour for 10 hours.
As a test of DHR96 acting in a xenobiotic pathway, DHR96 mutants were tested for sensitivity to the pesticide DDT. Adult wild type flies (Canton S) and DHR96^16A were exposed or DHR96^E25 flies to varying concentrations of DDT and recorded survival rates after a fixed time.
(§2) The adult Canton S flies and the DHR96E25 outcrossed lines were exposed to varying concentrations of drug and recorded effects after a fixed time (FIG. 11). DDT was assayed by starving young healthy adult flies overnight and then transferring them to vials, in three groups of 20 flies each, with filter paper soaked with 5% sucrose alone or 5% sucrose and DDT at different concentrations. The number of living flies was scored after 23 hours. […] Tebufenozide was administered to larvae in the food, and the number of surviving adult flies was scored.

[5] = system: Cyp6g1; test: Cyp6g1 induction by DDT in Canton S flies; format: in vivo, Drosophila melanogaster; settings: one experiment
From the text: Validation can be conducted on selected genes, covering the different classes of detoxification pathways as well as new players that identified. Similar microarray studies using at least two other compounds, depending on which compounds show an effect in the viability and behavioral assays. It will be confirmed that wild type Canton S flies show a response to DDT using Cyp12d1 and other P450 genes as probes for northern blot hybridization. […] Other pesticides can also be surveyed for effects on a select group of Cyp gene targets to identify other compounds for use in comparative microarray profiling. […] Determining the transcriptional response to more than one xenobiotic compound can provide an initial impression of how insects respond to different toxins in their environment. […] Alternatively, the genetic response may be fine-tuned to combat specific xenobiotic compounds.

[6] = system: Cyp6a2 and Cyp6a8 transcription; test: Northern blot hybridization of Cyp transcription in adult flies treated with phenobarbital; settings: adult flies treated with 0.3%, 1%, and 3% phenobarbital
Protocol: Each treatment is done in triplicate. RNA is extracted from each set of animals, purified by TRIzol extraction (Gibco BRL) followed by RNeasy column chromatography (Qiagen), and ethanol precipitation. The RNA is then labeled and hybridized to Affymetrix GeneChip® Drosophila Genome 2.0 arrays designed to detect 18,500 Drosophila transcripts. Data is then analyzed using DChip 1.3 (http://biosun1.harvard.edu/complab/dchip/) and Significance Analysis of Microarrays (SAM).

[7] = system: Canton S and outcrossed DHR96E25 mutant larvae; test: Tebufenozide administered to larvae in the food, surviving adult flies scored; format: in vivo, Drosophila melanogaster; settings: larvae raised on food supplemented with the drug
Protocol: as §1, §2
The above assays are for testing the effect of xenobiotics on adult flies. Compounds can also be tested for their larvicidal effects by administering them in the food to staged populations of larvae (Grant et al. Bull. Envir. Contam. Tox. 69:35-40, 2002). DHR96 and Canton S control flies are maintained on normal cornmeal/molasses agar supplemented with yeast. Egg lays are collected overnight from these stocks and used to innoculate fresh vials of food supplemented with a specific concentration of the drug to be tested. […]

[8] = target: T1, GAL4-DHR96 fusion protein (Drosophila melanogaster, UniProt Q24143); test: GAL4-LBD activation assay in cultured third instar larval organs (UAS-lacZ, Xgal staining); format: cell-based; settings: organs of heat-induced hs-GAL4-DHR96; UAS-lacZ third instar larvae cultured with 1×10^−5 M tebufenozide
T1 construct: expressed in transfected cells; host or cells: transgenic Drosophila third instar larvae (hs-GAL4-DHR96; UAS-lacZ), dissected organs in culture
T1 sequence (Q24143 99-723): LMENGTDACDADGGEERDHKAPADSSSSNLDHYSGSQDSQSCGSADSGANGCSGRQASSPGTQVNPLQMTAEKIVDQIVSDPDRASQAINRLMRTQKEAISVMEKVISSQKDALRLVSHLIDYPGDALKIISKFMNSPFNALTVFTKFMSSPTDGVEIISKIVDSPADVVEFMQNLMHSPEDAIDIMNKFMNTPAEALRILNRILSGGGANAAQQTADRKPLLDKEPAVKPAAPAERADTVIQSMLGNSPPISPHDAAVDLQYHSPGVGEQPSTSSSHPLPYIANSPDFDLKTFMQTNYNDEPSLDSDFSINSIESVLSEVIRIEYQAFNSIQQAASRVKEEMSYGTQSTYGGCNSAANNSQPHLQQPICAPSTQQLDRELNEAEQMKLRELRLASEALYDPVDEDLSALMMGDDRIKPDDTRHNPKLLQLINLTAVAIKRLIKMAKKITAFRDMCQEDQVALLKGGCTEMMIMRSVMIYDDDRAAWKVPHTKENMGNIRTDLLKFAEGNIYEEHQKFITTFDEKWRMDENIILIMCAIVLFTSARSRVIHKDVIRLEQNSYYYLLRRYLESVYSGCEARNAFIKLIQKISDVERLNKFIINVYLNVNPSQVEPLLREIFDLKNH
From the text: A gene fusion of the GAL4 DNA binding domain (DBD) and DHR96 ligand binding domain (LBD) is expressed upon heat-induction of the hsp70 promoter. The resultant fusion protein can bind to GAL4 response elements (UAS) on a seperate transgenic construct, but will only activate lacZ transcription in the presence of an appropriate ligand and/or co-factors (a ligand is shown). β-galactosidase expression is detected as the substrate from an Xgal staining reaction.
Third instar larvae were heat-treated to induce GAL4-DHR96 expression, dissected, and organs were cultured in the presence of 1×10^−5 M tebufenozide. UAS-lacZ reporter gene expression was detected by Xgal staining. […]
DHR96 activation can be assayed for by using a method established to follow the activation status of a nuclear receptor ligand binding domain (LBD) in a developing animal. […] Expression of β-galactosidase can be detected by histochemical staining using X-gal as a substrate, generating a blue dye (FIGS. 13, 14). […]
An advantage of the GAL4-LBD system is that it can be used in tissues dissected from transgenic larvae to test specific compounds for their ability to activate the fusion protein. […] A similar assay can be used to test the ability of xenobiotic compounds to activate the GAL4-DHR96 fusion protein in cultured larval organs, using either UAS-lacZ or UAS-GFP as a readout. […]

[9] = living flies scored after 23 hours

CC(C)(O)CC[C@@H](O)[C@](C)(O)[C@H]1CC[C@@]2(O)C3=CC(=O)[C@@H]4C[C@H](O)[C@@H](O)C[C@]4(C)[C@H]3CC[C@]12C [3-epi-20-hydroxyecdysone]
Activation of DHR38 in the GAL4-LBD system [1]: can be activated

CNC(=O)Oc1cccc2ccccc12 [Carbaryl]
Solubility [2]: water

COc1cc2c(c(OC)c1OC)-c1ccc(OC)c(=O)cc1[C@@H](NC(C)=O)CC2 [Colchicine]
Resistance of nhr-8 mutant to the compound [3]: reduced resistance | Solubility [2]: ethanol

Clc1ccc(C(c2ccc(Cl)cc2)C(Cl)(Cl)Cl)cc1 [DDT]
Speed of death at a fixed concentration of DDT, DHR96 homozygotes vs wild type flies ([4]; 100 ng/μl DDT, mortality scored every hour for 10 hours): died more rapidly | Sensitivity to DDT (survival after a fixed time at varying concentrations), DHR96 mutants compared to control animals ([4]; adult DHR96^16A or DHR96^E25 flies vs Canton S, 0.78 to 100 ng/μl DDT, scored 10 hours later): more sensitive | Sensitivity to DDT treatment, original DHR96E25 mutant line vs Canton S [4, 9]: more sensitive | Sensitivity to DDT, outcrossed DHR96E25 line vs Canton S [4, 9]: no such sensitivity | Cyp6g1 induction [5]: low level | Solubility [2]: ethanol

COP(=S)(OC)Oc1ccc([N+](=O)[O-])cc1 [Methyl parathion]
Solubility [2]: acetone

O=[N+]([O-])/C=C1\NCCCS1 [Nithiazine]
Solubility [2]: water

CC(=O)[C@H]1[C@H](C#N)C[C@H]2[C@@H]3CC=C4C[C@@H](O)CC[C@]4(C)[C@H]3CC[C@@]21C [PCN]
Solubility [2]: DMSO

C[n+]1ccc(-c2cc[n+](C)cc2)cc1 [Paraquat]
Solubility [2]: water

CO[C@H]1/C=C/O[C@@]2(C)Oc3c(C)c(O)c4c(O)c(c(/C=N/N5CCN(C)CC5)c(O)c4c3C2=O)NC(=O)/C(C)=C\C=C\[C@H](C)[C@H](O)[C@@H](C)[C@@H](O)[C@@H](C)[C@H](OC(C)=O)[C@@H]1C [Rifampicin]
Solubility [2]: DMSO

CCN(CC)C(=S)[S-].O.O.O.[Na+] [Sodium diethyldithiocarbamate trihydrate]
Solubility [2]: water

CCN(CC)CCCC(C)Nc1ccnc2cc(Cl)ccc12 (stereo not shown) [chloroquine]
Resistance of nhr-8 mutant to the compound [3]: reduced resistance

CCC1(c2ccccc2)C(=O)NC(=O)NC1=O [phenobarbital]
Cyp6a2 and Cyp6a8 transcription in the DHR96 mutant [6]: no change in expression | Cyp6a2 and Cyp6a8 transcription in wild type animals [6]: dramatic induction

CCc1ccc(C(=O)NN(C(=O)c2cc(C)cc(C)c2)C(C)(C)C)cc1 [tebufenozide]
Sensitivity of the outcrossed DHR96E25 mutant to tebufenozide (surviving adult flies) [7]: slight sensitivity | Activation of GAL4-DHR96 (UAS-lacZ reporter gene expression) [8]: activated; also recorded: reproducible and distinct pattern of activation

C[C@H]([C@H](O)CCC(C)(C)O)[C@H]1CC[C@@]2(O)C3=CC(=O)[C@@H]4C[C@@H](O)[C@@H](O)C[C@]4(C)[C@H]3CC[C@]12C [α-ecdysone]
Activation of DHR38 in the GAL4-LBD system [1]: can be activated
